From ChEMBL document CHEMBL4118098, “Discovery of DS28120313 as a potent orally active hepcidin production inhibitor: Design and optimization of novel 4,6-disubstituted indazole derivatives” (Bioorg Med Chem Lett, 2017)
Values belong to the compound of their own block, whether it stands above or below them.

Experiments:
[1] = biological target: Serine/threonine-protein kinase pim-1 (Homo sapiens) (UniProt P11309); assay: Inhibition of PIM1 (unknown origin) at 0.19 uM relative to control
[2] = biological target: T1, Tyrosine-protein kinase TXK (Homo sapiens) (UniProt P42681); assay: Inhibition of TXK (unknown origin) at 0.19 uM relative to control
T1 sequence (whole entry): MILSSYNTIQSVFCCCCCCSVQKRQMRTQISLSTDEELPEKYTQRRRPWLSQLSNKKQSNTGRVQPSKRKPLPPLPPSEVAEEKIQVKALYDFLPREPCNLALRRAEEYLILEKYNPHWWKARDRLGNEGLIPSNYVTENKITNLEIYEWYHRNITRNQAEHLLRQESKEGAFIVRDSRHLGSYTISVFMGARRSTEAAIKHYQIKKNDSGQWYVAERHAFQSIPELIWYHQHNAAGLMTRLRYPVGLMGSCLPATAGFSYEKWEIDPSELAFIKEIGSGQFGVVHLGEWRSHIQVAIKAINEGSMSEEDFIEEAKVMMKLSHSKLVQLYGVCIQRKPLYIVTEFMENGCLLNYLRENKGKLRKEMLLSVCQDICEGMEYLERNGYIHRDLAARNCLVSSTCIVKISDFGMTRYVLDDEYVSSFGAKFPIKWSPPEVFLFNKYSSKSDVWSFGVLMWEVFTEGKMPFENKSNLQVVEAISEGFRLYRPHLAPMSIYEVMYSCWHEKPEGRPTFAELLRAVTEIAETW

[3] = biological target: Serine/threonine-protein kinase D3 (Homo sapiens) (UniProt O94806); assay: Inhibition of PKD3 (unknown origin) at 0.19 uM relative to control
[4] = tested on: Proto-oncogene tyrosine-protein kinase receptor Ret (Homo sapiens), P07949 [M918T]; assay: Inhibition of RET M918T mutant (unknown origin) at 0.19 uM relative to control
Proto-oncogene tyrosine-protein kinase receptor Ret (Homo sapiens), P07949 [M918T], sequence (P07949 whole entry M918T): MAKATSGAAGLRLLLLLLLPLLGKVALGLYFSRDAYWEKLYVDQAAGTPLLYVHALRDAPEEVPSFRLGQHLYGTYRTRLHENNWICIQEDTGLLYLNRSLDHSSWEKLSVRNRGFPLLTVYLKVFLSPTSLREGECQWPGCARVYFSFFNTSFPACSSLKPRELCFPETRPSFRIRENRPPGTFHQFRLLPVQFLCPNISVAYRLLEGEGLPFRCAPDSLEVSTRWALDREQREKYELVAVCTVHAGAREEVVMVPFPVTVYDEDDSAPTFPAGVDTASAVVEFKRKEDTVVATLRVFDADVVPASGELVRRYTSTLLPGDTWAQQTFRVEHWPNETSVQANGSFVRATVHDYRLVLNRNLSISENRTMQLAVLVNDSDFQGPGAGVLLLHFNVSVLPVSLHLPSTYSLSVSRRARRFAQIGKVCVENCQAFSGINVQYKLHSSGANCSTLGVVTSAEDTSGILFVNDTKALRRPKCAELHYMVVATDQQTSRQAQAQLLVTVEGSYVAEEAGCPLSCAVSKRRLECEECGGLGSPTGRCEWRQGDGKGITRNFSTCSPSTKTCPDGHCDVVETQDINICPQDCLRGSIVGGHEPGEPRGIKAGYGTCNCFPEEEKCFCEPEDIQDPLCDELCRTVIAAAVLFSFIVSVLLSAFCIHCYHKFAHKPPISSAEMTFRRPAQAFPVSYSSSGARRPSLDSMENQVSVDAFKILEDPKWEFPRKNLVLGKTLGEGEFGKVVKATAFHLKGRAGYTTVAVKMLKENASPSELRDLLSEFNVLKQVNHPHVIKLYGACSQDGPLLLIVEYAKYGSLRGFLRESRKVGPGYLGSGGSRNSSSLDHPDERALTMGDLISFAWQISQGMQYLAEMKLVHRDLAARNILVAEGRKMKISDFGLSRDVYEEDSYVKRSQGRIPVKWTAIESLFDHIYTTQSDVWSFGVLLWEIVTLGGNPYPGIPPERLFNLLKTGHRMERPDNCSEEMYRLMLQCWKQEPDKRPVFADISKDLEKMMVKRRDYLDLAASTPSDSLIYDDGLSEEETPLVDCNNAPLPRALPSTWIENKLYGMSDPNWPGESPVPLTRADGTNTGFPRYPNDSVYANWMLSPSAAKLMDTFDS

[5] = biological target: Receptor tyrosine-protein kinase erbB-4 (Homo sapiens) (UniProt Q15303); assay: Inhibition of HER4 (unknown origin) at 0.19 uM relative to control
[6] = biological target: Serine/threonine-protein kinase Nek6 (Homo sapiens) (UniProt Q9HC98); assay: Inhibition of NEK6 (unknown origin) at 0.19 uM relative to control
[7] = biological target: NT-3 growth factor receptor (Homo sapiens) (UniProt Q16288); assay: Inhibition of TRKC (unknown origin) at 0.19 uM relative to control
NT-3 growth factor receptor (Homo sapiens), sequence (Q16288 32-839 limits assumed): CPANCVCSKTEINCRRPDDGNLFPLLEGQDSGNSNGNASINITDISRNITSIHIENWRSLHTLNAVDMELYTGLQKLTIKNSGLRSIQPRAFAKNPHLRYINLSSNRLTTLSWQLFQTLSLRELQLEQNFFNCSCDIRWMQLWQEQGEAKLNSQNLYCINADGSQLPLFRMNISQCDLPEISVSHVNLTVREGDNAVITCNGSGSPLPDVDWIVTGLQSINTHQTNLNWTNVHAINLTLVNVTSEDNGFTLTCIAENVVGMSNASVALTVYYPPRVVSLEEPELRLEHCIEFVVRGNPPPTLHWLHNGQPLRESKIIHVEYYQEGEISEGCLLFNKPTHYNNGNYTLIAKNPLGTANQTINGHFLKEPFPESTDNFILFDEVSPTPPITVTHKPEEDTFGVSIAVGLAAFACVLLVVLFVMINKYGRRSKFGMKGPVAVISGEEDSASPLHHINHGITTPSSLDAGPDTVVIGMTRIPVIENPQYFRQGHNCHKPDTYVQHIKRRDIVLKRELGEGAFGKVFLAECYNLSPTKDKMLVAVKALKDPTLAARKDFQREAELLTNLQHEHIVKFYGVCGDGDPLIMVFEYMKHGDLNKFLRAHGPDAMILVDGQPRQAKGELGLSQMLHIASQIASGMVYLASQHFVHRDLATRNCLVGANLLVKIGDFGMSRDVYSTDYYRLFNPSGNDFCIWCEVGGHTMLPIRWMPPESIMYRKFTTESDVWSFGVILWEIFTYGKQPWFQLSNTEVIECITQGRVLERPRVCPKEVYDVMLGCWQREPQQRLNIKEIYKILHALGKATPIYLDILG

[8] = biological target: Tyrosine-protein kinase ITK/TSK (Homo sapiens) (UniProt Q08881); assay: Inhibition of ITK (unknown origin) at 0.19 uM relative to control
[9] = biological target: Tyrosine-protein kinase JAK2 (Homo sapiens) (UniProt O60674); assay: Inhibition of JAK2 (unknown origin) at 0.19 uM relative to control
Tyrosine-protein kinase JAK2 (Homo sapiens), sequence (O60674 whole entry): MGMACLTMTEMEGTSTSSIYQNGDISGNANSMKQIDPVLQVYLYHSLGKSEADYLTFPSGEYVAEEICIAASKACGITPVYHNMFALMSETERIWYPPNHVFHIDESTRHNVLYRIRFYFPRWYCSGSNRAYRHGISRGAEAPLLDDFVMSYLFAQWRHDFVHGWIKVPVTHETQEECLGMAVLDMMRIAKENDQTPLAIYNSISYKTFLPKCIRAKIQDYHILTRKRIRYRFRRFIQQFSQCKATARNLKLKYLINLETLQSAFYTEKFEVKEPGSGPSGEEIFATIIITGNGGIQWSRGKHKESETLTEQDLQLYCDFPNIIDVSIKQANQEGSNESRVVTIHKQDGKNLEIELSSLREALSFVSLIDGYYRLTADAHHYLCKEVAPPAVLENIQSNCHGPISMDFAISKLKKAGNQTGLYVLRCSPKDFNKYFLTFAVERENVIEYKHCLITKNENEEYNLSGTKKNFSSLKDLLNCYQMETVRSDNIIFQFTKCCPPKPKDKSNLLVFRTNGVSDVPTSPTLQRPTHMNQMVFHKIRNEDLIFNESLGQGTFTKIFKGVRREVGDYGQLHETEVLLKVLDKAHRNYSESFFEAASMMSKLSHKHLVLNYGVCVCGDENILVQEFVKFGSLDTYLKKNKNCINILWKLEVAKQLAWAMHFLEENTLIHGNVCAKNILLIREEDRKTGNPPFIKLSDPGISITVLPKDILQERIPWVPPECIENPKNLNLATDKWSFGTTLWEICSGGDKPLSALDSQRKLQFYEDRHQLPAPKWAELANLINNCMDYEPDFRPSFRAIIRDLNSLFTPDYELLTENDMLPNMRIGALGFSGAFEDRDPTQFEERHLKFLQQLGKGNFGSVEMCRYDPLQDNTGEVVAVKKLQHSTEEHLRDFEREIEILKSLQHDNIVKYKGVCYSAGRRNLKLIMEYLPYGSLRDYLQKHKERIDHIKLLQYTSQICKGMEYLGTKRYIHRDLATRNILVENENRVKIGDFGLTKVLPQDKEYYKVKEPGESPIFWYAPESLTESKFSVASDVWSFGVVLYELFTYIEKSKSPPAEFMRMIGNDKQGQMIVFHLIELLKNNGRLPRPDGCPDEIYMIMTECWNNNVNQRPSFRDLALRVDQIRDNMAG

[10] = biological target: T1, Tyrosine-protein kinase TXK (Homo sapiens); assay: Inhibition of TXK (unknown origin) at 0.164 uM relative to control
[11] = biological target: Ribosomal protein S6 kinase alpha-2 (Homo sapiens) (UniProt Q15349); assay: Inhibition of RSK3 (unknown origin) at 0.164 uM relative to control
[12] = biological target: Serine/threonine-protein kinase BRSK1 (Homo sapiens) (UniProt Q8TDC3); assay: Inhibition of BRSK1 (unknown origin) at 0.164 uM relative to control
[13] = biological target: Ephrin type-B receptor 1 (Homo sapiens) (UniProt P54762); assay: Inhibition of EPHB1 (unknown origin) at 0.164 uM relative to control
[14] = biological target: Tyrosine-protein kinase Yes (Homo sapiens) (UniProt P07947); assay: Inhibition of Yes (unknown origin) at 0.164 uM relative to control
[15] = Metabolic stability in pooled CD1 mouse liver microsomes assessed as parent compound remaining at 1 uM after 30 mins by LC-MS/MS analysis; format: ADME, microsome; details: read-out: Stability
[16] = biological target: Tyrosine-protein kinase FRK (Homo sapiens) (UniProt P42685); assay: Inhibition of FRK (unknown origin) at 0.164 uM relative to control
Tyrosine-protein kinase FRK (Homo sapiens), sequence (P42685 whole entry, the tested form may be a part): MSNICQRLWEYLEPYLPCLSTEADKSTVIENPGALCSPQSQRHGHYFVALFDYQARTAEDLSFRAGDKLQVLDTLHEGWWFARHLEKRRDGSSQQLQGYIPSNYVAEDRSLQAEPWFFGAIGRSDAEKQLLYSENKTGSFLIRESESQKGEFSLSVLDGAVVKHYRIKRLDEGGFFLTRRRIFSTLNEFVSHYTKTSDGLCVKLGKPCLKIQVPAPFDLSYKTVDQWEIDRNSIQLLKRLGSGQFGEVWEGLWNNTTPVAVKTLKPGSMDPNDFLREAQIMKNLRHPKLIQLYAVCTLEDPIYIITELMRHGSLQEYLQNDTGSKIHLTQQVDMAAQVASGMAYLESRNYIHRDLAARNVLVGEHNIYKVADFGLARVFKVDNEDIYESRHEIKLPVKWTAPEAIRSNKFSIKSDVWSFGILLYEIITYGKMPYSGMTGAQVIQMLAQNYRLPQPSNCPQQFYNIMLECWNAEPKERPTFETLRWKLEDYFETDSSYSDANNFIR

[17] = biological target: PAS domain-containing serine/threonine-protein kinase (Homo sapiens) (UniProt Q96RG2); assay: Inhibition of PASK (unknown origin) at 0.164 uM relative to control
[18] = biological target: Serine/threonine-protein kinase Sgk2 (Homo sapiens) (UniProt Q9HBY8); assay: Inhibition of SGK2 (unknown origin) at 0.164 uM relative to control
[19] = biological target: Mast/stem cell growth factor receptor Kit (Homo sapiens) (UniProt P10721); assay: Inhibition of KIT (unknown origin) at 0.164 uM relative to control
[20] = biological target: Serine/threonine-protein kinase PAK 5 (Homo sapiens) (UniProt Q9P286); assay: Inhibition of PAK5/PAK7 (unknown origin) at 0.164 uM relative to control
Serine/threonine-protein kinase PAK 5 (Homo sapiens), sequence (Q9P286 whole entry, looked up): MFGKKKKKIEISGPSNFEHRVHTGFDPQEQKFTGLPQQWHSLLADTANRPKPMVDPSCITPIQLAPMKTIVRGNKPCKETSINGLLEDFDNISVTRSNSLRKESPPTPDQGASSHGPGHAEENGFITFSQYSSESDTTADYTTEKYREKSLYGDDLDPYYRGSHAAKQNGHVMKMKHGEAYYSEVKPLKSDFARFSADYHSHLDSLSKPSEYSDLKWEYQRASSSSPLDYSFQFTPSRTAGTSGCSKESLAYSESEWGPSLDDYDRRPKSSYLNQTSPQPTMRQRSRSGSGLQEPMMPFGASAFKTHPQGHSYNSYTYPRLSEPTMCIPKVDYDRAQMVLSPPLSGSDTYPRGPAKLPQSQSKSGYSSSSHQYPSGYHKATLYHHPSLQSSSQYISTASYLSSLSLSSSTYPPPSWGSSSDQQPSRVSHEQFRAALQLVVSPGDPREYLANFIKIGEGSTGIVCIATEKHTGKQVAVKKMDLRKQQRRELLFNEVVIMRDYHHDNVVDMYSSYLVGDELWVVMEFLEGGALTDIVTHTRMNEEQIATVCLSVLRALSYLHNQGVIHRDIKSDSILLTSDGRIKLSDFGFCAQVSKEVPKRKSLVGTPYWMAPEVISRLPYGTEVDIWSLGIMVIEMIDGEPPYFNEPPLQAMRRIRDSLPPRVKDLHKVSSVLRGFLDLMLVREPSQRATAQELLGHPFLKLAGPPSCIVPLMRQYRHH

[21] = biological target: Ribosomal protein S6 kinase alpha-1 (Homo sapiens) (UniProt Q15418); assay: Inhibition of RSK1 (unknown origin) at 0.164 uM relative to control
[22] = biological target: Calcium/calmodulin-dependent protein kinase type II subunit gamma (Homo sapiens) (UniProt Q13555); assay: Inhibition of CaMK2-gamma (unknown origin) at 0.164 uM relative to control
Calcium/calmodulin-dependent protein kinase type II subunit gamma (Homo sapiens), sequence (Q13555 whole entry): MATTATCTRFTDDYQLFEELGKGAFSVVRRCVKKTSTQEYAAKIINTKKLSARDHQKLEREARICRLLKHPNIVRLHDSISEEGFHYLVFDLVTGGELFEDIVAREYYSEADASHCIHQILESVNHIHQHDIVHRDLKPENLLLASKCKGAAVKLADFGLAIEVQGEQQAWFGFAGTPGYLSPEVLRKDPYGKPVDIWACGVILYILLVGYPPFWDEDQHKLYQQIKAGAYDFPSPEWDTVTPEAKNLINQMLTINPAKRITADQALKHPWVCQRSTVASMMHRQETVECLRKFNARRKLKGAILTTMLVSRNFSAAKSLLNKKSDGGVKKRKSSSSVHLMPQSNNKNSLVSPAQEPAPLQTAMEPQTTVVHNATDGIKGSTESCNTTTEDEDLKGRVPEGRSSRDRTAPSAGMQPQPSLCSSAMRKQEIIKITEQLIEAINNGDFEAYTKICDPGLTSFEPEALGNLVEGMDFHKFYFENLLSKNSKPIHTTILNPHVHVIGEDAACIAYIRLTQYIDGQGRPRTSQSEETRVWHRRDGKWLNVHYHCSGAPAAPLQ

[23] = biological target: Cyclin-dependent kinase 1/cyclin B1 (Homo sapiens) (UniProt P06493+P14635); assay: Inhibition of CDK1/CyclinB (unknown origin) at 0.164 uM relative to control; format: protein-complex assay
[24] = biological target: Tyrosine-protein kinase Lyn (Homo sapiens) (UniProt P07948); assay: Inhibition of LYNB (unknown origin) at 0.164 uM relative to control

inhibition [1]: -1.3% | inhibition [2]: -8.3% | inhibition [3]: 4.7% | inhibition [4]: 41% | inhibition [5]: -8.7% | inhibition [6]: -1% | inhibition [7]: 42% | inhibition [8]: 24.7% | inhibition [9]: 6.3%
SMILES: Cc1[nH]nc(C2CC2)c1-c1ccc2c(-c3ccc(N4CCN(C)CC4)nc3)n[nH]c2c1

inhibition [10]: 1.3% | inhibition [11]: 4.7% | inhibition [12]: -1% | inhibition [13]: 3% | inhibition [14]: 3% | remaining at 0.5 h, 1 µM [15]: 84% | inhibition [16]: 5% | inhibition [17]: -3% | inhibition [18]: -0.7% | inhibition [19]: 4% | inhibition [20]: 5% | inhibition [21]: 17% | inhibition [22]: 18% | inhibition [23]: 4% | inhibition [24]: -0.3%
SMILES: COC(=O)Nc1cc(-c2c(C3CC3)n[nH]c2C)cc2[nH]ncc12
